Results: patent US9725442B2, “Heterocyclic derivative having PGD2 receptor antagonist activity” (Shionogi & Co., Ltd., priority 2011, dated 2017)
Where two headings read alike, the source gives them in different places.

Tests used:
Human DP1 receptor = Human DP1 receptor (Homo sapiens (Human), UniProt Q13258); test: Human DP1 inhibitory activity in DP1-expressing cell (PGD2-induced cAMP); type: cell-based
Method: Compounds were categorized as AA (cAMP is less than 100 nM) and A (cAMP is more than 100 nM and less than 5000 nM) as shown in Table 99 and 100.

DP receptor = DP receptor (Homo sapiens (Human), UniProt Q13258); test: DP inhibitory activity in human platelets (PGD2-induced cAMP increase in platelet rich plasma, HTRF); type: cell-based; settings: IC50 of PGD2 (300 nM)-induced cAMP increase, read-out: PRP
DP receptor, sequence (Q13258 whole entry): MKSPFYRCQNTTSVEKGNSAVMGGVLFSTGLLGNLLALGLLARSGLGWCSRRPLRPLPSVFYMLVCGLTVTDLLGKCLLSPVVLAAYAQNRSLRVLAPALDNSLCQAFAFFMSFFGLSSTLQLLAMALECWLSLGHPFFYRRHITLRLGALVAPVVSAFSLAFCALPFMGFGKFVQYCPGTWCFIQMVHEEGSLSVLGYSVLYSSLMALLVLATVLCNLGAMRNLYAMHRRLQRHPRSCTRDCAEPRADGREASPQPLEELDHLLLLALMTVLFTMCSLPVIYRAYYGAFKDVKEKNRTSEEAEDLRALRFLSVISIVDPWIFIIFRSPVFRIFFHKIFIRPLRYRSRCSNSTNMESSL
Method: Thirty milliliter of blood was drown from healthy human into a syringe preloaded with 1/9 volume of 3.8% citrate sodium. The blood was centrifuged with 180 g for 10 min at room temperature and the upper plasma layer was collected as platelet rich plasma (PRP). The PRP was transferred to plate and treated with 3-isobutyl-1-methylxanthin (IBMX; […]) for 5 min. Then the compounds of the present invention were added to the plate and after 10 min, 300 nM of PGD2 was added. The reaction was stopped with 1 mmol/l hydrogenchlolide after 2 min of PGD2 addition, and platelet was lysed by adding 12% Triton X-100. The concentration of cAMP in the supernatant of the platelet lysate was quantified using homogenous time resolved fluorescence (HTRF). Inhibition ratio was defined by cAMP increase with and without compound, and […] for each compound was calculated from inhibitory curve.

CRTH2 = CRTH2 (Homo sapiens (Human), UniProt Q9Y5Y4); test: CRTH2 receptor binding inhibitory activity ([3H]-PGD2 displacement, membranes of CRTH2-expressing K562 cell); settings: [3H]-PGD2 displacement, membrane of CRTH2-expressing K562 cell, read-out: Ki
CRTH2, sequence (Q9Y5Y4 whole entry): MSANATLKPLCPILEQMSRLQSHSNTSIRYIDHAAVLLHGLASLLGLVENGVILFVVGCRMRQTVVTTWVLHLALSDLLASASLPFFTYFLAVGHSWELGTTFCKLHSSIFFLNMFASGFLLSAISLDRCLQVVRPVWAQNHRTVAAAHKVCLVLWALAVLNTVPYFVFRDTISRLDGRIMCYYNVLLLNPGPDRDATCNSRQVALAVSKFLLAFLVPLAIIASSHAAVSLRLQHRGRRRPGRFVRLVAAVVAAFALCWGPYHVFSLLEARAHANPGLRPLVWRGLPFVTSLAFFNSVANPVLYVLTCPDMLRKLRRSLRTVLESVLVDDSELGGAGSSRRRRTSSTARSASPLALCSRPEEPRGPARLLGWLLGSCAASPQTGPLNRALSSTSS
How it was run: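 CRTH2-expressing K562 membranes (20 μg/well) in 50 mM Tris/HCl pH 7.4 with 10 mM MgCl2 were incubated with [3H]-PGD2 for 60 min at room temperature, then filtered.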

[1] = IC50 of PGD2 (60 nM)-induced cAMP increase, human DP1 receptor expressing Jurkut cell
[2] = category of cAMP IC50, human DP1 receptor expressing Jurkut cell
[3] = CRTH2 receptor binding, categorized AAAA/AAA

Human DP1 receptor, sequence (Q13258 whole entry): as the sequence (Q13258 whole entry) above

Row | SMILES | IC50 (Human DP1 receptor; [1]) | IC50 (Human DP1 receptor; [2]) | IC50 (DP receptor) | Ki (CRTH2; [3]) | Ki (CRTH2)
1 | CCOc1ccc(S(=O)(=O)N2C[C@@H](C)[C@@H](n3nc(CC(=O)O)c4ccccc43)C2)s1 [Compound I-177] | 58 nM | < 100 nM | 44 nM | < 100 nM | 15 nM
2 | CO/N=C/[C@H]1C[C@@H](n2nc(CC(=O)O)c3ccc(F)cc32)CN1S(=O)(=O)c1ccc(OC(C)C)cc1 [Compound I-19] | 56 nM | < 100 nM | 260 nM | < 100 nM | 62 nM
3 | CC(C)Oc1ccc(S(=O)(=O)N2C[C@@H](C)[C@H](n3nc(CC(=O)O)c4cc(Br)c(F)cc43)C2)cc1 [Compound I-156] | 3 nM | < 100 nM | 110 nM | 100 to 5000 nM | 
4 | CCOc1ccc(S(=O)(=O)N2C[C@@H](C)[C@@H](n3nc(C4(C(=O)O)CC4)c4ccccc43)C2)cc1 [Compound I-336] | 35 nM | < 100 nM | 180 nM | 100 to 5000 nM | 440 nM
5 | CCOc1ccc(S(=O)(=O)N2C[C@@H](C)[C@@H](n3nc(CC(=O)O)c4ccccc43)C2)c(F)c1 [Compound I-245] | 27 nM | < 100 nM | 68 nM | < 100 nM | 
6 | CCOc1ccc(S(=O)(=O)N2C[C@H](n3nc(CC(=O)O)c4ccccc43)C[C@@H]2C#N)cc1 [Compound I-322] | 29 nM | < 100 nM | 12 nM | 100 to 5000 nM | 270 nM
7 | CCOc1ccc(S(=O)(=O)N2C[C@H](n3nc(CC(=O)O)c4ccccc43)CC23COC3)cc1 [Compound I-353] | 120 nM | 100 to 5000 nM | 37 nM | 100 to 5000 nM | 400 nM
8 | CCOc1ccc(S(=O)(=O)N2C[C@@H](C)[C@@H](n3nc(C(C)C(=O)O)c4ccccc43)C2)cc1 (stereo partly shown) [Compound I-284] | 50 nM | < 100 nM | 130 nM | < 100 nM | 55 nM
9 | CCOc1ccc(S(=O)(=O)N2C[C@@H](C)[C@@H](n3nc(CC(=O)O)c4c(F)cccc43)C2)cc1 [Compound I-150] | 20 nM | < 100 nM | 41 nM | < 100 nM | 99 nM
10 | CCOc1ccc(S(=O)(=O)N2C[C@@H](C)[C@@H](n3nc(CC(=O)NS(C)(=O)=O)c4ccccc43)C2)cc1 [Compound I-212] |  | 100 to 5000 nM |  | 100 to 5000 nM | 
11 | CC(C)Oc1ccc(S(=O)(=O)N2CC=C(n3nc(CC(=O)O)c4ccc(F)cc43)C2)cc1 [Compound I-28] |  | < 100 nM |  | 100 to 5000 nM | 
12 | CC(C)Oc1ccc(S(=O)(=O)N2C[C@@H](C)[C@@H](n3nc(Cc4nnn[nH]4)c4ccc(F)cc43)C2)cc1 [Compound I-157] |  | 100 to 5000 nM |  | 100 to 5000 nM | 270 nM
13 | CC(C)Oc1ccc(S(=O)(=O)N2C[C@@H](CCF)[C@@H](n3nc(CC(=O)O)c4ccc(F)cc43)C2)cc1 [Compound I-45] |  | 100 to 5000 nM |  | < 100 nM | 
14 | CC(C)Oc1ccc(S(=O)(=O)N2C[C@@H](n3nc(CC(=O)O)c4ccc(F)cc43)C[C@@H]2c2ccccc2F)cc1 [Compound I-301] |  | 100 to 5000 nM |  | 100 to 5000 nM | 
15 | CC(C)Oc1ccc(S(=O)(=O)N2C[C@H](n3nc(CC(=O)O)c4ccc(F)cc43)C[C@H]2CC#N)cc1 [Compound I-14] |  | 100 to 5000 nM |  | < 100 nM | 
16 | C[C@@H]1CN(S(=O)(=O)c2cc3ccccc3s2)C[C@@H]1n1nc(CC(=O)O)c2ccccc21 [Compound I-152] |  | 100 to 5000 nM |  | < 100 nM | 56 nM
17 | CCOc1ccc(S(=O)(=O)N2C[C@H](C)[C@@H](n3nc(CC(=O)O)c4ccccc43)C2)cn1 [Compound I-201] |  | 100 to 5000 nM |  | < 100 nM | 
18 | C#Cc1cc(OCC)ccc1S(=O)(=O)N1C[C@@H](C)[C@@H](n2nc(CC(=O)O)c3ccccc32)C1 [Compound I-278] |  | 100 to 5000 nM |  | < 100 nM | 
19 | CC(C)Oc1ccc(S(=O)(=O)N2C[C@H](n3nc(CC(=O)O)c4ccc(F)cc43)C[C@H]2COc2nc3ccccc3s2)cc1 [Compound I-300] |  | 100 to 5000 nM |  | < 100 nM | 
20 | COc1ccccc1OC[C@H]1C[C@@H](n2nc(CC(=O)O)c3ccc(F)cc32)CN1S(=O)(=O)c1ccc(OC(C)C)cc1 [Compound I-344] |  | < 100 nM |  | 100 to 5000 nM | 
21 | CCOc1ncc(S(=O)(=O)N2C[C@@H](C)[C@@H](n3nc(CC(=O)O)c4ccc(C)cc43)C2)s1 [Compound I-170] |  | < 100 nM |  | < 100 nM | 
22 | CC(C)NC(=O)[C@@H]1C[C@@H](n2nc(CC(=O)O)c3ccc(F)cc32)CN1S(=O)(=O)c1ccc(OC(C)C)cc1 [Compound I-6] |  | 100 to 5000 nM |  | 100 to 5000 nM | 
23 | CCOc1ccc(S(=O)(=O)N2C[C@@H](C)[C@@H](n3nc(CC(=O)O)c4ccccc43)C2)nc1 [Compound I-247] |  | 100 to 5000 nM |  | < 100 nM | 15 nM

Row | SMILES | IC50 (Human DP1 receptor; [1]) | IC50 (Human DP1 receptor; [2]) | IC50 (DP receptor) | Ki (CRTH2; [3]) | Ki (CRTH2)
24 | CC(C)Oc1ccc(S(=O)(=O)N2C[C@H](n3nc(CC(=O)O)c4ccccc43)C[C@@H]2Cc2ccccc2)cc1 [Compound I-349] |  | < 100 nM |  | 100 to 5000 nM | 
25 | C[C@@H]1CN(S(=O)(=O)c2ccc3occc3c2)C[C@@H]1n1nc(CC(=O)O)c2ccccc21 [Compound I-215] |  | 100 to 5000 nM |  | < 100 nM | 22 nM
26 | Cc1ccc(S(=O)(=O)N2C[C@@H](C)[C@@H](n3nc(CC(=O)O)c4ccc(F)cc43)C2)cc1 [Compound I-117] |  | 100 to 5000 nM |  | < 100 nM | 1.6 nM
27 | CC(C)Oc1ccc(S(=O)(=O)N2C[C@H](n3nc(CC(=O)O)c4ccc(F)cc43)C[C@@H]2Cn2ncnn2)cc1 [Compound I-299] |  | 100 to 5000 nM |  | 100 to 5000 nM | 
28 | CCOc1ncc(S(=O)(=O)N2C[C@@H](C)[C@@H](n3nc(CC(=O)O)c4ccccc43)C2)s1 [Compound I-168] |  | < 100 nM |  | < 100 nM | 
29 | CCOc1ccc(S(=O)(=O)N2C[C@@H](C)[C@@H](n3nc(CC(=O)O)c4ccccc43)C2)c(C(C)O)c1 (stereo partly shown) [Compound I-312] |  | < 100 nM |  | < 100 nM | 
30 | C[C@@H]1CN(S(=O)(=O)c2ccc(OC(F)F)cc2)C[C@@H]1n1nc(CC(=O)O)c2ccc(C(F)(F)F)cc21 [Compound I-127] |  | < 100 nM |  | < 100 nM | 
31 | CCOc1ccc(S(=O)(=O)N2C[C@@H](C)[C@@H](n3nc(CC(=O)O)c4ccccc43)C2)c(-c2ccccc2)c1 [Compound I-187] |  | 100 to 5000 nM |  | < 100 nM | 
32 | COc1ccc(S(=O)(=O)N2C[C@@H](C)[C@@H](n3nc(CC(=O)O)c4ccc(F)cc43)C2)cn1 [Compound I-116] |  | 100 to 5000 nM |  | < 100 nM | 
33 | CC(C)Oc1ccc(S(=O)(=O)N2C[C@H](n3nc(CC(=O)O)c4ccc(F)cc43)C[C@@H]2COc2cccc(I)c2)cc1 [Compound I-295] |  | < 100 nM |  | 100 to 5000 nM | 
34 | C[C@@H]1CN(S(=O)(=O)c2cccc(Cl)c2)C[C@@H]1n1nc(CC(=O)O)c2ccc(F)cc21 [Compound I-122] |  | 100 to 5000 nM |  | < 100 nM | 2.5 nM
35 | CC(C)Oc1ccc(S(=O)(=O)N2C[C@@H](CF)[C@@H](n3nc(CC(=O)O)c4ccc(F)cc43)C2)cc1 [Compound I-42] |  | 100 to 5000 nM |  | < 100 nM | 
36 | CCOc1ccc(S(=O)(=O)N2C[C@H](n3nc(CC(=O)O)c4ccccc43)C[C@H]2C#N)cc1 [Compound I-320] |  | < 100 nM |  | < 100 nM | 
37 | CC(C)C1CC1S(=O)(=O)N1C[C@@H](C)[C@@H](n2nc(CC(=O)O)c3ccc(F)cc32)C1 (stereo partly shown) [Compound I-239] |  | 100 to 5000 nM |  | < 100 nM | 4.4 nM
38 | CNC(=O)[C@@H]1C[C@@H](n2nc(CC(=O)O)c3ccc(F)cc32)CN1S(=O)(=O)c1ccc(OC(C)C)cc1 [Compound I-4] |  | 100 to 5000 nM |  | 100 to 5000 nM | 320 nM
39 | CC(C)Oc1ccc(S(=O)(=O)N2C[C@H](n3nc(CC(=O)O)c4ccc(F)cc43)C[C@H]2C)cc1 [Compound I-10] |  | 100 to 5000 nM |  | < 100 nM | 8.2 nM
40 | COc1ccc2c(c1)c(CC(=O)O)nn2[C@H]1CN(S(=O)(=O)c2ccc(OC(C)C)cc2)C[C@H]1C [Compound I-267] |  | < 100 nM |  | 100 to 5000 nM | 
41 | Cc1ccc2c(CC(=O)O)nn([C@H]3CN(S(=O)(=O)c4ccc(OC(C)C)cc4)C[C@@H]3C)c2c1 [Compound I-114] |  | < 100 nM |  | < 100 nM | 
42 | CCOc1ccc(S(=O)(=O)N2C[C@H](n3nc(CC(=O)O)c4ccc(F)cc43)C(C)(C)C2)cc1 [Compound I-331] |  | < 100 nM |  | < 100 nM | 
43 | COC[C@@H]1C[C@@H](n2nc(CC(=O)O)c3ccc(F)cc32)CN1S(=O)(=O)c1ccc(OC(C)C)cc1 [Compound I-16] |  | 100 to 5000 nM |  | < 100 nM | 
44 | CC(C)Oc1ccc(S(=O)(=O)N2C[C@H](n3nc(CC(=O)O)c4ccc(F)cc43)C[C@@H]2c2nc[nH]n2)cc1 [Compound I-55] |  | 100 to 5000 nM |  | 100 to 5000 nM | 
45 | CC(C)Oc1ccc(S(=O)(=O)N2C[C@H](n3nc(CC(=O)O)c4ccc(F)cc43)C[C@@H]2COc2cccc(F)c2)cc1 [Compound I-303] |  | < 100 nM |  | 100 to 5000 nM | 
